{"source": "patent US8314112B2", "about": "(Novartis AG, priority 2008, dated 2012)", "data": [{"target": "T1, human ALK5 (kinase domain, ALK5 T204D) (Homo sapiens, UniProt P36897, T204D)", "T1 construct": "The kinase domain of human ALK5 (amino acids 200-503); made in house; host or cells: insect cells (baculovirus)", "T1 sequence (P36897 200-503 T204D)": "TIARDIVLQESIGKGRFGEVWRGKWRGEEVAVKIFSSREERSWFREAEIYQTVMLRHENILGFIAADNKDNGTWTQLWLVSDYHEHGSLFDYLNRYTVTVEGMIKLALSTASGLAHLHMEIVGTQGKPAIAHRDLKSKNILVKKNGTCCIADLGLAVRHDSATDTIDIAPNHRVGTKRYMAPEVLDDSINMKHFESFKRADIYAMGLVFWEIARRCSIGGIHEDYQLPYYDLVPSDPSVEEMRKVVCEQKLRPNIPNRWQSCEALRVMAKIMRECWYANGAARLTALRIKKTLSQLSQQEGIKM", "experiment": "ALK5 kinase assay ([33P] phosphate incorporation into casein)", "format": "biochemical", "settings": "casein substrate, 1 μM unlabelled ATP", "experimental": "The kinase activity of ALK5 is assessed by measuring radiolabelled phosphate [33P] incorporation in to the generic substrate, casein. The kinase domain of human ALK5 (amino acids 200-503) is fused to an N-terminal histidine tag. The kinase activity of ALK5 is rendered constitutive via point mutation at amino acid 204 (threonine to aspartate modification, ALK5 T204D) and the kinase construct is engineered to be expressed from a baculovirus expression construct in insect cells. The purified, recombinantly-expressed histidine-tagged ALK5 T204D protein is dissolved at 5.4 mg/ml in 50 mM Tris-HCl pH 8.0, 150 mM NaCl, 5 mM DTT. ALK5 T204D is dissolved to 2.5 μg/ml in assay buffer (Assay buffer: 20 mM Tris-HCl pH 7.4, 10 mM MgCl2, 2 mM MnCl2) on the day of use.\nTest compounds and reference compounds are dissolved in assay buffer without DTT containing 5% (v/v) DMSO. Stock solutions of test and reference compounds are diluted in assay buffer with DTT (1.25 mM) containing 4.5% (v/v) DMSO. 10 μl of test or reference compound are added to the appropriate wells of 96 well U-bottomed plate. Total enzyme activity is determined by measuring ALK5 T204D activity in the absence of ALK5 kinase inhibitor reference compounds. Non-specific binding (NSB) is determined by measuring the activity of ALK5 T204D in the presence of ALK5 kinase inhibitor reference compounds. 10 μl of dephosphorylated casein stock solution (dephosphorylated casein is dissolved in ddH2O at 20 mg/ml) is added per well (200 μg/well final assay concentration). 20 μl of ALK5 T204D (2.5 μg/ml solution) is added per well (50 ng/well final assay concentration). The plates are left to incubate at room temperature for 10 minutes.\n10 μl of ATP mix is added to the well to initiate the reaction (0.66 nM [^33P]ATP/1 μM unlabelled ATP/well final assay concentration). The ATP mix is prepared as follows, unlabelled ATP (3 mM) is dissolved in ddH2O and pH adjusted to 7.4. The stock concentration of [^33P]ATP is 10 μCi/μl. The appropriate volume of [^33P]ATP is added to unlabelled ATP solution such that the final assay concentration per well is 0.1 μCi. Following addition of the ATP mix, the plates are incubated at room temperature for 50 minutes. The kinase reaction is terminated by the addition of 50 μL Stop Buffer (20 mM Tris-HCl pH 7.4, 10 mM EDTA).\n75 μl/well from the reaction plate is transferred to a Multiscreen-IP plate (MultiScreen-IP plates are prepared by added 50 μL of 70% (v/v) ethanol per well and incubated for 5 minutes at room temperature. The ethanol is removed by aspiration via a MultiScreen HTS Vaccum Manifold unit (Millipore, Cat no: MSVMHT500). The plates are washed twice by adding 200 μl/well ddH2O). The MultiScreen-IP plate is incubated at room temperature for 30 minutes to allowing binding of casein to the plate. The MultiScreen-IP plates are washed three times by adding 200 μl/well 100 mM phosphoric acid solution and the gasket is carefully removed from the back of the MultiScreen-IP plate and the plate dried in the oven for 30 minutes. The MultiScreen-IP plate is backsealed, 50 μL of Microscint™20 is added, then the plates are topsealed and radiolabelled casein detected and quantified on a TopCount™ plate-reader using the ^33P scintillation protocol.", "units": {"IC50": "nM"}, "values": [{"smiles": "Cc1cccc(-c2cc(-c3cncc(-c4ccc(CN(C)C)cc4)c3)c3cc[nH]c3n2)n1", "note": "[Example 65, Dimethyl-(4-{5-[6-(6-methyl-pyridin-2-yl)-1H-pyrrolo[2,3-b]pyridin-4-yl]-pyridin-3-yl}-benzyl)-amine]", "IC50": 5}, {"smiles": "Cc1cccc(-c2cc(-c3cncc(C#CCN4CCC(F)(F)C4)c3)c3cc[nH]c3n2)n1", "note": "[Example 155, 4-{5-[3-(3,3-Difluoro-pyrrolidin-1-yl)-prop-1-ynyl]-pyridin-3-yl}-6-(6-methyl-pyridin-2-yl)-1H-pyrrolo[2,3-b]pyridine]", "IC50": 48}, {"smiles": "Cc1cccc(-c2cc(-c3cncc(-c4cccc(CC(=O)O)c4)c3)c3cc[nH]c3n2)n1", "note": "[Example 156, (3-{5-[6-(6-Methyl-pyridin-2-yl)-1H-pyrrolo[2,3-b]pyridin-4-yl]-pyridin-3-yl}-phenyl)-acetic acid]", "IC50": 11}, {"smiles": "Cc1cccc(-c2cc(-c3cncc(CO)c3)c3cc[nH]c3n2)n1", "note": "[Example 109, {5-[6-(6-Methyl-pyridin-2-yl)-1H-pyrrolo[2,3-b]pyridin-4-yl]-pyridin-3-yl}-methanol]", "IC50": 812}, {"smiles": "Cc1cccc(-c2nc(-c3cncc(C4=CCCCC4)c3)c3cc[nH]c3n2)n1", "note": "[Example 72, 4-(5-Cyclohex-1-enyl-pyridin-3-yl)-2-(6-methyl-pyridin-2-yl)-7H-pyrrolo[2,3-d]pyrimidine]", "IC50": 198}, {"smiles": "Cc1cncc(-c2nc(-c3cccc(C)n3)nc3[nH]ccc23)c1", "note": "[Example 96, 4-(5-Methyl-pyridin-3-yl)-2-(6-methyl-pyridin-2-yl)-7H-pyrrolo[2,3-d]pyrimidine]", "IC50": 751}, {"smiles": "Cc1cccc(-c2cc(-c3cncc(-c4ccc(C(C)(C)N(C)CCO)cc4)c3)c3cc[nH]c3n2)n1", "note": "[Example 163, 2-{Methyl-[1-methyl-1-(4-{5-[6-(6-methyl-pyridin-2-yl)-1H-pyrrolo[2,3-b]pyridin-4-yl]-pyridin-3-yl}-phenyl)-ethyl]-amino}-ethanol]", "IC50": 6.6}, {"smiles": "CCNC(=O)c1cncc(-c2nc(-c3cccc(C)n3)nc3[nH]ccc23)c1", "note": "[Example 11, N-Ethyl-5-[2-(6-methyl-pyridin-2-yl)-7H-pyrrolo[2,3-d]pyrimidin-4-yl]-nicotinamide]", "IC50": 367}, {"smiles": "COC(=O)CN(C)Cc1cccc(-c2cncc(-c3cc(-c4cccc(C)n4)nc4[nH]ccc34)c2)c1", "note": "[Example 141, [Methyl-(3-{5-[6-(6-methyl-pyridin-2-yl)-1H-pyrrolo[2,3-b]pyridin-4-yl]-pyridin-3-yl}-benzyl)-amino]-acetic acid methyl ester]", "IC50": 17}, {"smiles": "Cc1cccc(-c2cc(-c3cncc(-c4cccc(CO)c4)c3)c3cc[nH]c3n2)n1", "note": "[Example 93, (3-{5-[6-(6-Methyl-pyridin-2-yl)-1H-pyrrolo[2,3-b]pyridin-4-yl]-pyridin-3-yl}-phenyl)-methanol]", "IC50": 24}, {"smiles": "Cc1cccc(-c2nc(-c3cncc(CO)c3)c3cc[nH]c3n2)n1", "note": "[Example 79, {5-[2-(6-Methyl-pyridin-2-yl)-7H-pyrrolo[2,3-d]pyrimidin-4-yl]-pyridin-3-yl}-methanol]", "IC50": 1230}, {"smiles": "CC(=O)N1CC=C(c2cncc(-c3nc(-c4cccc(C)n4)nc4[nH]ccc34)c2)CC1", "note": "[Example 103, 1-{5-[2-(6-Methyl-pyridin-2-yl)-7H-pyrrolo[2,3-d]pyrimidin-4-yl]-3′,6′-dihydro-2′H-[3,4′]bipyridinyl-1′-yl}-ethanone]", "IC50": 133}, {"smiles": "Cc1cccc(-c2cc(-c3cncc(-c4ccc(CNCCO)cc4)c3)c3cc[nH]c3n2)n1", "note": "[Example 135, 2-(4-{5-[6-(6-Methyl-pyridin-2-yl)-1H-pyrrolo[2,3-b]pyridin-4-yl]-pyridin-3-yl}-benzylamino)-ethanol]", "IC50": 3.3}, {"smiles": "Cc1cccc(-c2nc(-c3cncc(C4=CCN(C)CC4)c3)c3cc[nH]c3n2)n1", "note": "[Example 116, 1′-Methyl-5-[2-(6-methyl-pyridin-2-yl)-7H-pyrrolo[2,3-d]pyrimidin-4-yl]-1′,2′,3′,6′-tetrahydro-[3,4′]bipyridinyl]", "IC50": 532}]}]}
